# Experimental data published in US9233109B2, “Compositions, methods of use, and methods of treatment” (UNIVERSITY OF FLORIDA RESEARCH FOUNDATION, INC., priority 2010, dated 2016).
# Where two headings read alike, the source gives them in different places.
# Experiments:
# α7 nAChR = molecular target: T1, α7 nAChR (Homo sapiens, UniProt P36544); assay: Bath application of test compound: modulation of ACh-evoked net charge responses in Xenopus oocytes; type: cell-based
# T1 construct: expressed in transfected cells; host or cells: Xenopus laevis oocytes injected with cRNA
# T1 sequence (P36544 23-502): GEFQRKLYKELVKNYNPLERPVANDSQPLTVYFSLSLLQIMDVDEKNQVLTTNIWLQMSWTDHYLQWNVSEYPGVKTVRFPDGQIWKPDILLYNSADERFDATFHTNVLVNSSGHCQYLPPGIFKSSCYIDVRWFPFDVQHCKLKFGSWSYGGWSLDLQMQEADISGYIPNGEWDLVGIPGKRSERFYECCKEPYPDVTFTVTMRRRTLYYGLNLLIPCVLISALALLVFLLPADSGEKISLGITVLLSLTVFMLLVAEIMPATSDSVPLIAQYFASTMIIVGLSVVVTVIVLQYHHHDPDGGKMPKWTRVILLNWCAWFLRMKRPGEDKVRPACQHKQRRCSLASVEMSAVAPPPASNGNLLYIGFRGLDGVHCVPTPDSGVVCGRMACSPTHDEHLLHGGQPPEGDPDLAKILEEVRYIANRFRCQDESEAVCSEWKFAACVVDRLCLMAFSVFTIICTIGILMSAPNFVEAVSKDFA
# Procedure: (§1) We have extended this approach to defined receptor subtypes expressed in Xenopus oocytes. Experiments were conducted on cells expressing HS α4β2 (α4(2)β2(3)), LS α4β2 (α4(3)β2(2)), or α7 nAChR.
# (§2) cDNA: Human nAChR receptor clones and concatamers were obtained from Dr. Jon Lindstrom (University of Pennsylvania, Philadelphia Pa.). The human RIC-3 clone, obtained from Dr. Millet Treinin (Hebrew University, Jerusalem Israel), was co-injected with α7 to improve the levels and speed of receptor expression.
# (§3) Oocyte preparation: Oocytes were surgically removed from mature Xenopus laevis frogs and injected with 50 nl (5-20 ng) of appropriate nAChR subunit cRNAs as described previously (Horenstein et al., 2008).
# (§4) Experiments were conducted using OpusXpress 6000A (Molecular Devices, Union City Calif.) and analyzed as described previously (Papke and Papke, 2002; Horenstein et al., 2008; Papke and Stokes, 2010).
# (§5) Initial experiments were run for 50 minutes after the introduction of the experimental compounds into the bath.
# [1] = molecular target: T2, HS α4β2 (α4(2)β2(3)) nAChR (Homo sapiens, UniProt P17787+P43681); assay: Bath application of test compound: inhibition of ACh-evoked peak currents in Xenopus oocytes; type: cell-based
# T2 construct: expressed in transfected cells; host or cells: Xenopus laevis oocytes injected with cRNA
# T2 sequence (P17787 26-502): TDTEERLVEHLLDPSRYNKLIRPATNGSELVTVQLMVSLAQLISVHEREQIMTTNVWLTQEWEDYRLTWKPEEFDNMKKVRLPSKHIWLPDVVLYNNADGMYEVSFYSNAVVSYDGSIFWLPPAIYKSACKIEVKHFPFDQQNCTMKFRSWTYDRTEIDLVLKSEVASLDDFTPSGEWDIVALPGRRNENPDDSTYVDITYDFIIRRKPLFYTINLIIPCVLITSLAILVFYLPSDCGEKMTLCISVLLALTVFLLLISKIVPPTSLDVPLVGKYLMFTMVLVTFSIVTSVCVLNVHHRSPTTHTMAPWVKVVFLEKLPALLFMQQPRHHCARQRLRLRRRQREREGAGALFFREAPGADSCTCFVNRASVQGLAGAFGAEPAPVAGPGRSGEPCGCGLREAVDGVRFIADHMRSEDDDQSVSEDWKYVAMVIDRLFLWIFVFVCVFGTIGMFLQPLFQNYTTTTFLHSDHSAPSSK
# T2 sequence (P43681 29-627 limits assumed): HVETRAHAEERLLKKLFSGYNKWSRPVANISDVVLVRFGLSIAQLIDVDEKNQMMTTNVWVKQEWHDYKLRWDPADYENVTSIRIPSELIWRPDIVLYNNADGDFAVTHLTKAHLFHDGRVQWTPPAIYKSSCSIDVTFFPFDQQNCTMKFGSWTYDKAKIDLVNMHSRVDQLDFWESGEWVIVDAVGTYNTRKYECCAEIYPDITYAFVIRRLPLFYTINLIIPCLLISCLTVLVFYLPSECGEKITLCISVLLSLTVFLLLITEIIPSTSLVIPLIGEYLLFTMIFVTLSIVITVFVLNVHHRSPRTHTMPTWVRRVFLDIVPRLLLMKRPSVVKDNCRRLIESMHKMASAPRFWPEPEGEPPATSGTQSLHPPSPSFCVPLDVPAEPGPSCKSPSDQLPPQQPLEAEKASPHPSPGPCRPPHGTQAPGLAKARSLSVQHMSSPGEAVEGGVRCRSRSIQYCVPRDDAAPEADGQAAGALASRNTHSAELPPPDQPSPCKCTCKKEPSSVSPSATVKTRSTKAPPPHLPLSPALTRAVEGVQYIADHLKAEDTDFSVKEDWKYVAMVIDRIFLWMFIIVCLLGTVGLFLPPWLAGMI
# T2 sequence (P17787 26-502): as the sequence (P17787 26-502) above
# Procedure: as §1, §2, §3, §4, §5
# [2] = molecular target: T3, LS α4β2 (α4(3)β2(2)) nAChR (Homo sapiens, UniProt P17787+P43681); assay: as above; type: cell-based
# T3 construct: expressed in transfected cells; host or cells: Xenopus laevis oocytes injected with cRNA
# T3 sequence (P17787 26-502): as above
# T3 sequence (P43681 29-627 limits assumed): as the sequence (P43681 29-627 limits assumed) above
# T3 sequence (P43681 29-627 limits assumed): as above
# Procedure: as §1, §2, §3, §4, §5
# α4(2)β2(2)α5 nAChR [3] = molecular target: T4, α4(2)β2(2)α5 nAChR (Homo sapiens, UniProt P17787+P30532+P43681); assay: Bath application of test compound: inhibition of ACh-evoked responses in Xenopus oocytes; type: cell-based
# T4 construct: expressed in transfected cells; host or cells: Xenopus laevis oocytes injected with cRNA
# T4 sequence (P17787 26-502): as the sequence (P17787 26-502) above
# T4 sequence (P43681 29-627 limits assumed): as the sequence (P43681 29-627 limits assumed) above
# T4 sequence (P30532 23-468): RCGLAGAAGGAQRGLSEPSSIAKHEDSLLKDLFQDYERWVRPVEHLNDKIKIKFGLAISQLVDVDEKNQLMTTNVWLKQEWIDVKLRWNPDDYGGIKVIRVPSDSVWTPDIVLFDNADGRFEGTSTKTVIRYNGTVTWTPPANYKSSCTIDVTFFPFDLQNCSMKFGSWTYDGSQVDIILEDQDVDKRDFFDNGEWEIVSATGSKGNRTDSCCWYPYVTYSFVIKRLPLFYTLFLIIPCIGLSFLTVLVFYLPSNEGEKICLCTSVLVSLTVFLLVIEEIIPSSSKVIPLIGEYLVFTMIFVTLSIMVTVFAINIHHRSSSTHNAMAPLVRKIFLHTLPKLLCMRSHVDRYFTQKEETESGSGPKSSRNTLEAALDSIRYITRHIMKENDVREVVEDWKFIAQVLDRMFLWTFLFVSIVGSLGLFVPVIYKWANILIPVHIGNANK
# Procedure: as §2, §3, §4, §5
# (§6) Recently, attention has been drawn to α5 as a member of a gene cluster associated with high risk for cancer and heavy smoking (Saccone et al., 2007). In the periphery, α5 is most likely expressed in association with the other members of its gene cluster, α3 and β4.
# [4] = tested on: α4(3)β2(2), α4(2)β2(3) and α7 nAChR; assay: Baseline shifts / steady-state currents in the presence of bath-applied 3-pyr-Cyt, oocytes; type: cell-based, human; conditions: bath application
# Procedure: FIG. 2.8 is a summary of the effects of bath-applied 3-pyr-Cyt on α4(3)β2(2) and α4(2)β2(3) and α7 nAChR. Bath application experiments were conducted as described for cytisine, varenicline, and nicotine.
# One such compound is 3-(pyridin-3′-yl)-cytisine (3-pyr-Cyt), an agent proposed to have very little likelihood of off-target α7 activity (Mineur et al., 2009).
# human α7 receptors = human α7 receptors (Homo sapiens, UniProt P36544); conditions: cited from earlier work
# human α7 receptors, sequence (P36544 23-502): as the sequence (P36544 23-502) above
# [5] = preliminary findings of clinical trials, schizophrenics; cited from earlier work
# α4(3)β2(2) nAChR [6] = molecular target: T5, α4(3)β2(2) nAChR (Homo sapiens, UniProt P17787+P43681); assay: Acute co-application of ACh and cytisine, model fit of peak current responses in oocytes; type: cell-based
# T5 construct: expressed in transfected cells; host or cells: Xenopus laevis oocytes injected with cRNA
# T5 sequence (P17787 26-502): as the sequence (P17787 26-502) above
# T5 sequence (P43681 29-627 limits assumed): as the sequence (P43681 29-627 limits assumed) above
# T5 sequence (P43681 29-627 limits assumed): as above
# Excerpt: FIG. 2.1 illustrates a model applied to the activation of nAChR by simultaneous co-applications of the full agonist “a” and a partial agonist “p”. […] The IMax of the full agonist is assigned a value of 1. The first and second terms of the equation represent the activation produced by the full agonist and partial agonists, respectively, scaled by their potencies and weighted by receptor availability. The third term allows noncompetitive effects of the partial agonist. If such noncompetitive activity is inhibitory, then ni is assigned a negative value.
# Acute responses to agonist/partial agonist applications were fit with a general non-linear regression model, implemented as an option in a Windows data analyses and graphical presentation program (CAS Data Forge). The terms na, np, ni, Rmaxp, Inmaxp, EC50a, EC50p, and IC50p were given starting estimates based on the data obtained with the drugs applied separately. Tolerance factor (typically 1×10^−5) range limits for each parameter were specified. […] A predicted matrix was then calculated for each cell of the matrix, based on the a and p concentrations, the set of parameters listed above, and the governing equation. The residuals across all cells were calculated, and an iterative process was utilized to revise the parameters to minimize the residuals and allow the estimates to be revised accordingly. When the difference of estimates for any given parameter for consecutive iterations fell below the tolerance factor, that parameter was fixed at the last estimate. When all parameters were fixed or no convergent solution was found, the process stopped, and the set of parameters representing the best fit along with the resulting matrix was provided.
# The Imax for the full agonist was constrained to 1 while the Imax for the partial agonist was a free parameter <1.0.
# Curve fit values for the drugs when applied alone were used as seeds for the competitive interactions.
# α4β2 receptors = conditions: cited from earlier work
# α4(2)β2(3) nAChR = molecular target: T6, α4(2)β2(3) nAChR (Homo sapiens, UniProt P17787+P43681); assay: Mecamylamine-sensitive steady-state activation during bath application, oocytes; type: cell-based; conditions: bath concentration 100 nM
# T6 construct: expressed in transfected cells; host or cells: Xenopus laevis oocytes injected with cRNA
# T6 sequence (P17787 26-502): as the sequence (P17787 26-502) above
# T6 sequence (P43681 29-627 limits assumed): as the sequence (P43681 29-627 limits assumed) above
# T6 sequence (P17787 26-502): as the sequence (P17787 26-502) above
# Excerpt: (§7) In our bath application experiments we frequently saw small responses at the beginning of the bath applications, and sometimes there were significant shifts in baseline holding current that occurred over the long periods of recording. While increases in baseline current would be consistent with the stimulation of steady-state currents, baseline shifts can occur for other reasons as well, especially if the quality of the voltage clamp diminished over a long period of recording.
# (§8) Even after just 30 minutes of continual bath application, a large shift in baseline was apparent. […] Table 3 provides a summary of the mecamylamine-sensitive steady-state currents measured for each of the drug-receptor combinations associated with drifting baselines.
# α4(3)β2(2) nAChR [7] = molecular target: T5, α4(3)β2(2) nAChR; assay: as above; type: cell-based; conditions: bath concentration 300 nM
# Excerpt: as §7, §8
# α4(2)β2(2)α5 nAChR [8] = molecular target: T4, α4(2)β2(2)α5 nAChR; assay: as above; type: cell-based; conditions: bath concentration 1 μM
# Excerpt: as §7, §8
# α4β2α5 nAChR = molecular target: T7, α4β2α5 nAChR (Homo sapiens, UniProt P17787+P30532+P43681); assay: Agonist activation of α4β2α5 receptors in oocytes; type: cell-based
# T7 construct: expressed in transfected cells; host or cells: Xenopus laevis oocytes injected with cRNA
# T7 sequence (P17787 26-502): as above
# T7 sequence (P43681 29-627 limits assumed): as the sequence (P43681 29-627 limits assumed) above
# T7 sequence (P30532 23-468): as the sequence (P30532 23-468) above
# Excerpt: as §6
# [9] = Mineur et al., 2009; cited from earlier work
# [10] = IC50, inhibition of ACh-evoked responses by prolonged bath application
# [11] = Example 1, average of 30-40 min time points, 60 μM ACh, net charge, read-out: IC50, inhibition of ACh-evoked responses by prolonged bath application
# [12] = read-out: IC50, inhibition of ACh-evoked responses by prolonged bath application
# [13] = noncompetitive inhibition factor
# [14] = IC50 for the inhibition of ACh evoked responses by bath applications of agonists and partial agonists
compound,measurement,setting,value
C[N+](C)(C)CCO [choline],IC50,α7 nAChR; [10],6.7 ± 1.2 µM
"O=c1c(-c2cccnc2)ccc2n1C[C@@H]1CNC[C@H]2C1 [3-pyr-Cyt, 3-(pyridin-3′-yl)-cytisine]",IC50,α7 nAChR; [11],103 ± 25 µM
same,concentration at which significant inhibition of α7-mediated responses was achieved,α7 nAChR; highest concentration tested,100 µM
same,effect on ACh-evoked responses at low concentration,[1]; 30 nM in bath,partial inhibition
same,IC50,"[1]; Example 1, average of 30-40 min time points, 10 μM ACh, peak currents, read-out: IC50, inhibition of ACh-evoked responses by prolonged bath application",0.653 ± 0.5 µM
same,IC50,"[1]; read-out: IC50 for the inhibition of ACh evoked responses by bath applications of agonists and partial agonists, Table 2, after 30±4 min bath application, 10 μM ACh",0.6 ± 0.5 µM
same,IC50,"[2]; Example 1, average of 30-40 min time points, 30 μM ACh, peak currents, read-out: IC50, inhibition of ACh-evoked responses by prolonged bath application",5.4 ± 4 µM
same,IC50,"[2]; read-out: IC50 for the inhibition of ACh evoked responses by bath applications of agonists and partial agonists, Table 2, after 30±4 min bath application, 30 μM ACh",16 µM
same,IC50,"α4(2)β2(2)α5 nAChR [3]; read-out: IC50 for the inhibition of ACh evoked responses by bath applications of agonists and partial agonists, Table 2, after 30±4 min bath application, 3 μM ACh",2.3 µM
same,baseline shifts or steady-state currents,[4],no baseline shifts or steady-state currents
"COc1ccc(/C=C2\CCCN=C2c2cccnc2)c(OC)c1 [GTS-21, 3-(2,4-dimethoxybenzylidene)anabaseine]",IC50,α7 nAChR,1.3 µM
same,IC50,α7 nAChR; [11],1.2 ± 0.4 µM
same,α7 ACh-evoked responses above the baseline controls,α7 nAChR; bath application of 30 nM,37±15%
same,bath concentrations at which α7 ACh-evoked responses were inhibited,"α7 nAChR; long-term bath application, net charge",greater than 300 nM
same,EC50,"human α7 receptors; Papke and Papke, 2002, read-out: EC50 for transient receptor activation",~6 µM
same,"efficacy for human α7 receptors, % that of ACh",human α7 receptors,about 20%
same,clinical ratings of negative symptoms,[5],improved clinical ratings of negative symptoms
same,IC50,[1]; [12],0.17 ± 0.1 µM
same,IC50,[2]; [12],1 ± 0.4 µM
"O=c1cccc2n1C[C@@H]1CNC[C@H]2C1 [Cytisine, cytisine]","Activation n (Hill coefficient, best fit)",α4(3)β2(2) nAChR [6],0.61
same,best fit IC50 relative to EC50,α4(3)β2(2) nAChR [6],three-fold lower
same,Inhibition Inmax of the partial agonist (best fit),α4(3)β2(2) nAChR [6]; [13],0.7
same,"Inhibition n (Hill coefficient, best fit)",α4(3)β2(2) nAChR [6]; [13],1.7
same,IC50,"α4(3)β2(2) nAChR [6]; noncompetitive inhibition factor, read-out: Inhibition IC50 of the partial agonist (best fit)",32 µM
same,EC50,"α4(3)β2(2) nAChR [6]; peak current, read-out: Activation EC50 (best fit)",88 µM
same,Activation Rmax (best fit),"α4(3)β2(2) nAChR [6]; relative to ACh maximum, ACh constrained to 1",0.35
same,IC50,α7 nAChR; [10],0.3 ± 0.2 µM
same,IC50,α7 nAChR; [14],1.2 µM
same,"efficacy for α4β2 receptors, % that of ACh",α4β2 receptors,< 20%
same,IC50,[1],0.008 ± 0.005 µM
same,IC50,[2]; [10],0.085 ± 0.044 µM
same,IC50,[2]; [14],0.027 ± 0.014 µM
same,Mecamylamine-sensitive steady-state activation relative to ACh maximum evoked transient responses,α4(2)β2(3) nAChR,1.4 ± 0.1%
same,Mecamylamine-sensitive steady-state activation relative to ACh maximum evoked transient responses,α4(3)β2(2) nAChR [7],1.1 ± 0.2%
same,Mecamylamine-sensitive steady-state activation relative to ACh maximum evoked transient responses,α4(2)β2(2)α5 nAChR [8],2.5 ± 0.5%
same,IC50,α4(2)β2(2)α5 nAChR [3],0.0032 ± 0.0016 µM
same,EC50,α4β2α5 nAChR,0.018 ± 0.009 µM
same,"efficacy for α4β2α5 receptors, % that of ACh",α4β2α5 nAChR,6±1%
same,potency at reducing immobility compared with mecamylamine,[9],equipotent as the pure antagonist mecamylamine
